We go through one substance from patent US20190175783A1, “High-Throughput Method for Detecting Tooth Stain Prevention and Removal” (Johnson & Johnson Consumer Inc., priority 2017, published 2019).

Assay [1] in a line: Stain prevention test (450 nm absorbance of stain displaced after pre-treatment). On the procedure:
Stain Prevention Test Procedure: • 1. Form a pellicle coat on hydroxyapatite (HAp) particles by mixing the particles with saliva and incubating the mixture. • 2. Transfer HAp particle/saliva suspension into a large batch filter container. • 3. Filter the saliva supernatant to waste. • 4. Treat pellicle coated HAp particles, sending the supernatant to waste. • 5. Filter the treated, pellicle coated HAp particles, sending the supernatant to waste. • 6. Stain the pre-treated pellicle coated HAp particles by adding a stain solution directly to the filter container and incubate. • 7. Wash any loosely bound stain off the pre-treated, pellicle coated HAp particles. • 8. Elute the stain from the stained, pre-treated, pellicle coated HAp particles 5% PPi solution. • 9. Filter and collect supernatant. • 10. Make UV-Vis absorbance measurements on collected supernatant.
A mass of 1 gram of hydroxyapatite particles (Bio-Rad, Hercules, Calif., catalogue 1570020) was suspended in artificial saliva at a concentration of 10 milligram/100 microliter and allowed to incubate for 15 minutes at 37° C. to form a pellicle coating. A volume of 100 microliter per sample was aliquoted into respective filter vesicle (96-well filter plate or filter tube) and the supernatant was filtered out from the particles (n=3 per sample treatment). The treatment solutions were prepared within a range of 0% to 2% polyphosphate solution in water. The stock 2% w/v solution was serial diluted 1:1 in water to achieve treatment concentrations of polyphosphates of 1%, 0.5%, 0.25%, 0.125%, 0.0625%, and 0.03125% w/v. The 0% solution was a water control. The pellicle coated hydroxyapatite particles were exposed to 200 microliter of treatment solution of polyphosphate for at least 1 minute at room temperature with agitation (120 rpm). The treatment was removed by filtration and the particles were exposed to 100 microliter of a 10% instant coffee stain solution and incubated at 37° C. for 30 minutes. The coffee was removed by filtration and the particles were washed of any loosely bound stain. The residual stain on the particles was displaced with 200 microliter of an alkaline 5% pyrophosphate solution by incubating at room temperature for 10 minutes. The displaced stain was collected in a 96-well plate and absorbance measurements were made (Tecan, Infinite M200 Pro) between 230 and 1000 nm with a 10 nm step increase between measurements. The absorbance at 450 nm was used as a measure of stain prevention, with the lower absorbance values indicating more stain prevented from attaching to hydroxyapatite particle.

A short description of assay [2]: Stain removal test (450 nm absorbance of stain removed). On the procedure: • 1. Form a pellicle coat on hydroxyapatite (HAp) particles by mixing the particles with saliva and incubating the mixture. • 2. Transfer HAp particle/saliva suspension into a large batch filter container. • 3. Filter the saliva supernatant to waste. • 4. Stain particles by adding a stain solution directly to the filter container and incubate. • 5. Transfer stained, pellicle coated HAp particle suspension into filter container. • 6. Filter the stained, pellicle coated HAp particles, sending the supernatant to waste. • 7. Re-suspend stained, pellicle coated HAp particles in water, and optionally store for future testing. • 8. Prepare stained, pellicle coated HAp particles for treatment. • 9. Treat stained HAp particles. • 10. Filter and collect the supernatant. • 11. Make UV-Vis absorbance measurements on collected supernatant.
A mass of one gram of hydroxyapatite powder (Bio-Rad, Hercules, Calif., catalogue 1570020) was suspended in artificial saliva (Northeast Laboratories, Winslow, Me., catalogue no. T0300) at a concentration of 10 milligram/100 microliter and allowed to incubate for 15 minutes at 37° C. to form a pellicle coating. The supernatant was filtered out from the particles. The particles were re-suspended in 10% instant coffee stain solution at a concentration of 10 milligram/100 microliter and incubated at 37° C. for 30 minutes. The coffee solution was removed by filtration and the particles were washed of any loosely bound stain. The now coffee stained, pellicle coated hydroxyapatite particles were suspended in water at a concentration of 10 milligram/100 microliter. A volume of 100 microliter per sample was aliquoted into respective filter vesicle (96-well filter plate or filter tube) and the supernatant was filtered out from the particles (n=3 per sample). The treatment solutions were prepared within a range of 0% to 2% polyphosphate solution in water. The stock 2% w/v solution was serial diluted 1:1 in water to achieve treatment concentrations of polyphosphates of 1%, 0.5%, 0.25%, 0.125%, 0.0625%, and 0.03125% w/v. The 0% solution was a water control. After, the stained hydroxyapatite particles were exposed to 200 microliter of respective treatment for 1 or 2 minutes at room temperature with agitation (120 rpm). The polyphosphate treatment solutions ranged from 0.031% to 2% w/v. A negative control, using distilled water as the treatment solution, was tested as a comparison to the polyphosphate treatment solutions. […] Subsequently, absorbance measurements (Tecan, Infinite M200 Pro) were made between 230 and 1000 nm with a 10 nm step increase between measurements. The absorbance at 450 nm was used as a measure of stain removed, where higher absorbance values indicated more stain displaced from the hydroxyapatite particles.

The mark [3] stands for this setting: concentration from 0.500% to 2.00%.
The mark [4] stands for this setting: concentration increased from 0.031% to 0.500%.

As for polyphosphate [polyphosphate solutions], in assay [1] (1-, 2- and 10-minute stain prevention pre-treatments), the “stain prevention, effect of pre-treatment time” value was “no significant difference”. Moreover, in assay [1] (setting [3]), the “level of stain removal (450 nm absorbance of displaced stain)” value is recorded as “remained constant”. For the same substance, the “stain prevention (450 nm absorbance)” value in assay [1] (setting [4]) was “stain prevention increased”. Further, the “450 nm absorbance values of stain displaced as a function of concentration” value in assay [1] (polyphosphate 0.031% to 2% w/v in water, 1-, 2- and 10-minute pre-treatments, 10% instant coffee stain, FIG. 2) was “clear dose response”. In assay [2] (1 versus 2 minute treatments), the “stain removal, effect of treatment time” value is listed as “no significant difference”. Besides, the “level of stain removal (450 nm absorbance)” value in assay [2] (setting [3]) is “remained constant”. Moreover, in assay [2] (setting [4]), the “stain removal (450 nm absorbance)” value is given as “stain removal increased”. In assay [2] (polyphosphate 0.031% to 2% w/v in water, 1- and 2-minute treatments, 10% instant coffee stain, FIG. 1), the “450 nm absorbance values of stain removed as a function of concentration” value is “clear dose response”.
